Experimental data from ChEMBL document CHEMBL1681783 (Bioorg Med Chem, 2011).
pIC50: −log10 of the molar value.

How the values were obtained:
Squalene synthase = target: T1, Squalene synthase (Homo sapiens, UniProt P37268)
T1 sequence (P37268 whole entry): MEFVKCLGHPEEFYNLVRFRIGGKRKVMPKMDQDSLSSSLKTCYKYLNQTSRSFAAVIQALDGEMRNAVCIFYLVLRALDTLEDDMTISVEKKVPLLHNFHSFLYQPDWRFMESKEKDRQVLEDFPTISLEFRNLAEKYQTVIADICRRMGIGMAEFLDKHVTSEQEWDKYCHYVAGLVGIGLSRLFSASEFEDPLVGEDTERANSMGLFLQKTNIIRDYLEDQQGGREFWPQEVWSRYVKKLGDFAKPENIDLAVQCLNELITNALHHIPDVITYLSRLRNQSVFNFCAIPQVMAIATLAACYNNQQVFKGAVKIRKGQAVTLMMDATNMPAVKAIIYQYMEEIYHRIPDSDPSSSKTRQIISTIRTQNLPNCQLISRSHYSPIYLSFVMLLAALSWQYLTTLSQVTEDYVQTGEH
Description: Inhibition of squalene synthase

[1] = Lipophilicity, log P of the compound; type: physicochemical; conditions: octanol/water
Rattus norvegicus = species on record: Rattus norvegicus; test: Inhibition of cholesterol synthesis in rat hepatic cells; type: functional, cell-based

pIC50 (Squalene synthase) | logP [1] | pIC50 (Rattus norvegicus) | SMILES
6.19 | – | – | CCOC(=O)C1CCN(C(=O)CCC(=O)N(CC(C)(C)C)c2ccc(Cl)cc2Cc2ccccc2Cl)CC1
< 6.22 | – | – | CCOC(=O)C1CCCN(C(=O)CCC(=O)N(CC(C)(C)C)c2ccc(Cl)cc2C(O)c2ccccc2F)C1 (configuration not stated)
8.96 | – | – | CCOC(=O)C1CCN(C(=O)CCC(=O)N(CC(C)(C)C)c2ccc(Cl)cc2C(O)c2cccc(OC)c2OC)CC1 (configuration not stated)
6.39 | – | – | CCOC(=O)C1CCCN(C(=O)CCC(=O)N(CC(C)(C)C)c2ccc(Cl)cc2C(O)c2ccccc2Cl)C1 (configuration not stated)
6.54 | 2.52 | 6.70 | CC(C)(C)CN(C(=O)CCC(=O)N1CCCC(C(=O)O)C1)c1ccc(Cl)cc1C(O)c1ccccc1F (configuration not stated)
6.11 | – | – | CCOC(=O)C1CCN(C(=O)CCC(=O)N(CC(C)(C)C)c2ccc(Cl)cc2C(O)c2ccccc2)CC1 (configuration not stated)
6.89 | – | 6.60 | CC(C)(C)CN(C(=O)CCC(=O)N1CCC(C(=O)O)CC1)c1ccc(Cl)cc1C(O)c1ccccc1Cl (configuration not stated)
< 5.22 | – | – | CCOC(=O)C1CCN(C(=O)CCCC(=O)N(CC(C)(C)C)c2ccc(Cl)cc2C(O)c2ccccc2Cl)CC1 (configuration not stated)
9.35 | – | – | CCOC(=O)C1CCN(C(=O)CCC(=O)N(CC(C)(C)C)c2ccc(Cl)cc2C(O)c2ccccc2F)CC1 (configuration not stated)
< 6.22 | – | – | CCOC(=O)C1CCCN(C(=O)CCC(=O)N(CC(C)(C)C)c2ccc(Cl)cc2C(O)c2cccc(OC)c2)C1 (configuration not stated)
< 6.22 | – | – | CC(C)(C)CN(C(=O)CCC(=O)N1CCC(C(=O)O)CC1)c1ccc(Cl)cc1C(O)c1ccc(F)cc1Cl (configuration not stated)
< 6.22 | – | – | CCOC(=O)C1CCCN(C(=O)CCC(=O)N(CC(C)(C)C)c2ccc(Cl)cc2C(O)c2cc(F)ccc2Cl)C1 (configuration not stated)
6.22 | – | – | CCCN(C(=O)CCC(=O)N1CCC(C(=O)OCC)CC1)c1ccc(Cl)cc1C(O)c1ccccc1Cl (configuration not stated)
8.70 | 2.25 | 5.82 | COc1cccc(C(O)c2cc(Cl)ccc2N(CC(C)(C)C)C(=O)CCC(=O)N2CCCC(C(=O)O)C2)c1OC (configuration not stated)
6.66 | – | 5.59 | CC(C)(C)CN(C(=O)CCC(=O)NCC1CCCCC1)c1ccc(Cl)cc1C(O)c1ccccc1Cl (configuration not stated)
6.68 | – | – | CCOC(=O)C1CCN(C(=O)CCC(=O)N(CC(C)(C)C)c2ccc(Cl)cc2C(O)c2cccc(OC)c2)CC1 (configuration not stated)
6.39 | – | – | CCOC(=O)C1CCN(C(=O)CCC(=O)N(CC(C)(C)C)c2ccc(Cl)cc2C(O)c2ccccc2OCC)CC1 (configuration not stated)
7.70 | 2.98 | 6.57 | CC(C)(C)CN(C(=O)CCC(=O)N1CCCC(C(=O)O)C1)c1ccc(Cl)cc1[C@H](O)c1ccccc1Cl (some centres not stated)
6.55 | – | – | CC(C)(C)CN(C(=O)CCC(=O)N1CCC(C(N)=O)CC1)c1ccc(Cl)cc1C(O)c1ccccc1Cl (configuration not stated)
8.10 | – | 5.85 | CCOC(=O)CN1CCN(C(=O)CCC(=O)N(CC(C)(C)C)c2ccc(Cl)cc2C(O)c2ccccc2Cl)CC1 (configuration not stated)
– | 2.81 | 7.08 | COc1ccccc1C(O)c1cc(Cl)ccc1N(CC(C)(C)C)C(=O)CCC(=O)N1CCCC(C(=O)O)C1 (configuration not stated)

pIC50 (Squalene synthase) | logP [1] | pIC50 (Rattus norvegicus) | SMILES
8.77 | – | 6.22 | COc1ccccc1C(O)c1cc(Cl)ccc1N(CC(C)(C)C)C(=O)CCC(=O)N1CCC(C(=O)O)CC1 (configuration not stated)
< 6.22 | 2.35 | – | COc1cccc(C(O)c2cc(Cl)ccc2N(CC(C)(C)C)C(=O)CCC(=O)N2CCCC(C(=O)O)C2)c1 (configuration not stated)
8.00 | – | – | CCOC(=O)C1CCN(C(=O)CCC(=O)N(CC(C)(C)C)c2ccc(Cl)cc2C(O)c2cccc3c2OCCO3)CC1 (configuration not stated)
8.59 | – | – | CCOC(=O)C1CCCN(C(=O)CCC(=O)N(CC(C)(C)C)c2ccc(Cl)cc2C(O)c2ccccc2OC)C1 (configuration not stated)
8.70 | – | – | CCOC(=O)C1CCN(C(=O)CCC(=O)N(CC(C)(C)C)c2ccc(Cl)cc2C(O)c2ccc(F)cc2Cl)CC1 (configuration not stated)
7.89 | – | – | CCOC(=O)C1CCCN(C(=O)CCC(=O)N(CC(C)(C)C)c2ccc(Cl)cc2C(O)c2cccc3c2OCCO3)C1 (configuration not stated)
4.68 | – | – | CCOC(=O)C1CCN(C(=O)CCC(=O)N(C)c2ccc(Cl)cc2C(O)c2ccccc2Cl)CC1 (configuration not stated)
8.43 | – | 5.80 | CC(C)NC(=O)C1CCN(C(=O)CCC(=O)N(CC(C)(C)C)c2ccc(Cl)cc2C(O)c2ccccc2Cl)CC1 (configuration not stated)
< 6.22 | – | – | CCOC(=O)C1CCCN(C(=O)CCC(=O)N(CC(C)(C)C)c2ccc(Cl)cc2C(O)c2ccc(F)cc2Cl)C1 (configuration not stated)
– | 2.42 | – | CC(C)(C)CN(C(=O)CCC(=O)N1CCCC(C(=O)O)C1)c1ccc(Cl)cc1C(O)c1ccccc1 (configuration not stated)
< 6.22 | – | – | CCOC(=O)C1CCN(C(=O)CCC(=O)N(CC(C)(C)C)c2ccc(Cl)cc2C(O)c2cc(F)ccc2Cl)CC1 (configuration not stated)
5.68 | – | – | CC(C)(C)CN(C(=O)CCC(=O)N1CCNCC1)c1ccc(Cl)cc1C(O)c1ccccc1Cl (configuration not stated)
8.08 | 3 | 5.89 | CC(C)(C)CN(C(=O)CCC(=O)N1CCCC(C(=O)O)C1)c1ccc(Cl)cc1C(O)c1cccc(F)c1Cl (configuration not stated)
6.72 | 3.28 | – | CC(C)(C)CN(C(=O)CCC(=O)N1CCCC(C(=O)O)C1)c1ccc(Cl)cc1C(O)c1ccc(F)cc1Cl (configuration not stated)
8.96 | – | – | CCOC(=O)C1CCN(C(=O)CCC(=O)N(CC(C)(C)C)c2ccc(Cl)cc2C(O)c2ccccc2OC)CC1 (configuration not stated)
8.55 | – | 5.80 | COc1cccc(C(O)c2cc(Cl)ccc2N(CC(C)(C)C)C(=O)CCC(=O)N2CCC(C(=O)O)CC2)c1OC (configuration not stated)
8.62 | – | – | CCNC(=O)C1CCN(C(=O)CCC(=O)N(CC(C)(C)C)c2ccc(Cl)cc2C(O)c2ccccc2Cl)CC1 (configuration not stated)
7.55 | – | – | CCOC(=O)C1CCCN(C(=O)CCC(=O)N(CC(C)(C)C)c2ccc(Cl)cc2C(O)c2cccc(F)c2Cl)C1 (configuration not stated)
5.77 | – | – | COC(=O)CCC(=O)N(CC(C)(C)C)c1ccc(Cl)cc1C(O)c1ccccc1Cl (configuration not stated)
< 6.22 | – | – | CCOC(=O)C1CCCN(C(=O)CCC(=O)N(CC(C)(C)C)c2ccc(Cl)cc2C(O)c2ccccc2OCC)C1 (configuration not stated)
< 6.22 | 2.8 | – | CC(C)(C)CN(C(=O)CCC(=O)N1CCCC(C(=O)O)C1)c1ccc(Cl)cc1C(O)c1cc(F)ccc1Cl (configuration not stated)

pIC50 (Squalene synthase) | logP [1] | pIC50 (Rattus norvegicus) | SMILES
< 6.22 | – | – | COc1cccc(C(O)c2cc(Cl)ccc2N(CC(C)(C)C)C(=O)CCC(=O)N2CCC(C(=O)O)CC2)c1 (configuration not stated)
8.89 | – | 6.05 | CNC(=O)C1CCN(C(=O)CCC(=O)N(CC(C)(C)C)c2ccc(Cl)cc2C(O)c2ccccc2Cl)CC1 (configuration not stated)
8.17 | 1.87 | 6.77 | CC(C)(C)CN(C(=O)CCC(=O)N1CCCC(C(=O)O)C1)c1ccc(Cl)cc1C(O)c1cccc2c1OCCO2 (configuration not stated)
6.59 | – | – | CC(C)(C)CN(C(=O)CCC(=O)N1CCN(S(C)(=O)=O)CC1)c1ccc(Cl)cc1C(O)c1ccccc1Cl (configuration not stated)
< 6.22 | – | – | CCOc1ccccc1C(O)c1cc(Cl)ccc1N(CC(C)(C)C)C(=O)CCC(=O)N1CCC(C(=O)O)CC1 (configuration not stated)
< 5.22 | – | – | CCOC(=O)C1CCN(C(=O)CCC(=O)N(CC(C)(C)C)c2ccc(Cl)cc2CO)CC1
< 6.22 | – | – | CCOC(=O)C1CCN(C(=O)CC(=O)N(CC(C)(C)C)c2ccc(Cl)cc2C(O)c2ccccc2Cl)CC1 (configuration not stated)
5.77 | – | < 5.00 | CC(C)(C)CN(C(=O)CCC(=O)N1CCC(C(=O)O)CC1)c1ccc(Cl)cc1C(O)c1ccccc1F (configuration not stated)
8.64 | – | – | CCOC(=O)N1CCN(C(=O)CCC(=O)N(CC(C)(C)C)c2ccc(Cl)cc2C(O)c2ccccc2Cl)CC1 (configuration not stated)
8.96 | – | – | CC(C)(C)CN(C(=O)CCC(=O)N1CCN(C(=O)OCc2ccccc2)CC1)c1ccc(Cl)cc1C(O)c1ccccc1Cl (configuration not stated)
7.77 | – | 6.04 | CC(C)(C)CN(C(=O)CCC(=O)N1CCC(C(=O)O)CC1)c1ccc(Cl)cc1C(O)c1cccc(F)c1Cl (configuration not stated)
7.01 | – | – | CN(C)C(=O)C1CCN(C(=O)CCC(=O)N(CC(C)(C)C)c2ccc(Cl)cc2C(O)c2ccccc2Cl)CC1 (configuration not stated)
< 6.22 | – | – | CC(C)(C)CN(C(=O)CCC(=O)N1CCC(C(=O)O)CC1)c1ccc(Cl)cc1C(O)c1cc(F)ccc1Cl (configuration not stated)
8.80 | – | 5.70 | CCCCNC(=O)C1CCN(C(=O)CCC(=O)N(CC(C)(C)C)c2ccc(Cl)cc2C(O)c2ccccc2Cl)CC1 (configuration not stated)
8.15 | – | 6.64 | CC(C)(C)CN(C(=O)CCC(=O)N1CCC(C(=O)O)CC1)c1ccc(Cl)cc1C(O)c1cccc2c1OCCO2 (configuration not stated)
8.14 | – | – | CCOC(=O)C1CCN(C(=O)CCC(=O)N(CC(C)(C)C)c2ccc(Cl)cc2C(O)c2cccc(F)c2Cl)CC1 (configuration not stated)
5.19 | – | – | CC(C)(C)CN(C(=O)CCC(=O)O)c1ccc(Cl)cc1C(O)c1ccccc1Cl (configuration not stated)
< 6.22 | 3.32 | – | CCOc1ccccc1C(O)c1cc(Cl)ccc1N(CC(C)(C)C)C(=O)CCC(=O)N1CCCC(C(=O)O)C1 (configuration not stated)
8.89 | – | – | CCOC(=O)C1CCCN(C(=O)CCC(=O)N(CC(C)(C)C)c2ccc(Cl)cc2C(O)c2cccc(OC)c2OC)C1 (configuration not stated)
